From patent US9708397B2, “Treatment of vasculoproliferative conditions with Lrg1 antagonists” (UCL Business PLC, priority 2010, dated 2017)

System: Lrg1/TGFβ1 induced Smad5 phosphorylation
Experiment: TGFβ-induced Smad5 phosphorylation in Lrg1 over-expressing GPNT endothelial cells
Format: cell-based, rat
Settings: 5 ng/ml TGFβ, co-treatment
Text: We next established whether we could block endothelial Smad5 phosphorylation induced by TGFβ with either an anti-Lrg1 antibody or by peptide sequences derived from Lrg1. Peptides derived from the leucine-rich repeat regions of the Lrg1 sequence (L1-24 and L169-192 of Appendix 2 (SEQ ID NOS:3-4) or L94-117 and L262-285 of Appendix 3 (SEQ ID NOS:3-4)), which are believed to be involved in protein-protein interactions, and from the highly conserved leucine-rich C-terminal domain (L227-252 of Appendix 2 (SEQ ID NO:5) or L320-345 of Appendix 3 (SEQ ID NO:5)) were generated (Appendix 2). […] Treatment of control cells with 5 ng/ml TGFβ results in a significant increase in Smad5 phosphorylation.

| Sequence | effect on Smad5 phosphorylation | effect on Smad5 phosphorylation (listed as Lrg1 blocking peptide derived from the C-terminus) |
| --- | --- | --- |
| KMFSQNDTRCAGPEAVKGQTLLAVAK (listed as Homo sapiens) [L227-252] | dramatic inhibitory effect | inhibits |
| LDMLDLSNNSLASVPEGLWASLGQ (listed as Homo sapiens) [L169-192, Peptide from a leucine-rich repeat region of human Lrg1] | partial effect |  |
| LQELHLSSNGLESLSPEFLRPVPQ (listed as Homo sapiens) [L1-24, Peptide from a leucine-rich repeat region of human Lrg1] | no effect |  |
